Assays:
[1] = Liquid; for mass density: 318.15 K, 101.33 kPa
[2] = refractive index (Na D-line) (dimensionless); settings: 318.15 K; 101.33 kPa; Liquid; Standard Abbe refractometry
[3] = excess molar enthalpy (molar enthalpy of mixing); xn = mol fraction of the nth substance listed; settings: 101.32 kPa, Liquid, Calvet calorimetry
[4] = xn = mol fraction of the nth substance listed; settings: 101.32 kPa, Liquid

CC(C)(C)O [2-methylpropan-2-ol]
Settings | mass density [kg/m3] | refractive index
[1] | 759.87 | –
[2] | – | 1.3741

CCCC(=O)OC [methyl butanoate]
Settings | mass density [kg/m3] | refractive index
[1] | 870.24 | –
[2] | – | 1.3753

[1]
Settings | vapor or sublimation pressure [kPa]
347.53 K | 40.12
348.26 K | 41.24
349.21 K | 42.76
349.79 K | 43.84
350.81 K | 45.25
351.98 K | 46.74
352.34 K | 47.92
353.21 K | 49.41
353.72 K | 50.85
354.96 K | 51.83
355.26 K | 53.5
356.06 K | 54.82
356.79 K | 55.89
357.44 K | 57.38
358.24 K | 58.61
358.9 K | 60.02
359.7 K | 61.42
360.43 K | 62.63
360.93 K | 64.13
362.03 K | 66.54
362.31 K | 68.03
363.2 K | 69.42
363.49 K | 70.61
363.78 K | 71.18
365.02 K | 73.5
365.38 K | 74.77
365.97 K | 75.89
366.41 K | 77.39
366.84 K | 78.61
367.57 K | 80.14
368.01 K | 81.39
368.59 K | 82.57
369.25 K | 83.91
369.95 K | 85.71
370.19 K | 86.58
370.49 K | 87.94
371.07 K | 88.35
371.72 K | 90.8
371.79 K | 92.1
372.31 K | 93.26
372.89 K | 94.59
373.47 K | 95.92
373.84 K | 97.46
374.57 K | 99.14
374.77 K | 100.04
375.24 K | 101.32
375.37 K | 102.58
375.81 K | 104.06
376.02 K | 105.47
376.39 K | 106.5
376.97 K | 107.92
377.55 K | 109.23
378.14 K | 110.58
378.36 K | 112.15
378.79 K | 113.36
378.94 K | 114.67
379.3 K | 115.84
379.67 K | 117.27
380.03 K | 118.72
380.69 K | 120.15
381.2 K | 121.36
381.56 K | 122.59
381.64 K | 124.01
381.85 K | 125.24
382.22 K | 126.48
382.73 K | 127.91
382.95 K | 129.4
383.6 K | 130.75
383.68 K | 132.15
384.33 K | 133.49
384.77 K | 134.91
384.84 K | 135.92
385.06 K | 137.27
385.35 K | 138.45
385.72 K | 140.01
386.06 K | 141.27
386.74 K | 142.63
386.84 K | 144.13
387.1 K | 145.37
387.47 K | 146.49
387.61 K | 147.69
387.98 K | 149.24
388.41 K | 150.57
388.92 K | 151.94
389.02 K | 153.4
389.36 K | 154.57
390.02 K | 156.49
390.16 K | 157.37
390.36 K | 158.7
390.53 K | 160.05
390.89 K | 161.18
391.07 K | 162.57
391.55 K | 163.94
391.98 K | 165.7
392.2 K | 166.69

CCCC(=O)OC [methyl butanoate] + CC(C)(C)O
Settings | excess molar enthalpy [kcal/mol] | excess molar volume [m3/mol]
[3], 299.15 K, x1 = 0.0487 | 0.0783 | –
[3], 299.15 K, x1 = 0.1046 | 0.158 | –
[3], 299.15 K, x1 = 0.1632 | 0.234 | –
[3], 299.15 K, x1 = 0.2233 | 0.299 | –
[3], 299.15 K, x1 = 0.283 | 0.351 | –
[3], 299.15 K, x1 = 0.3383 | 0.389 | –
[3], 299.15 K, x1 = 0.3915 | 0.415 | –
[3], 299.15 K, x1 = 0.4395 | 0.431 | –
[3], 299.15 K, x1 = 0.4853 | 0.439 | –
[3], 299.15 K, x1 = 0.5221 | 0.441 | –
[3], 299.15 K, x1 = 0.5268 | 0.441 | –
[3], 299.15 K, x1 = 0.5545 | 0.439 | –
[3], 299.15 K, x1 = 0.5745 | 0.437 | –
[3], 299.15 K, x1 = 0.636 | 0.417 | –
[3], 299.15 K, x1 = 0.7063 | 0.379 | –
[3], 299.15 K, x1 = 0.778 | 0.323 | –
[3], 299.15 K, x1 = 0.8552 | 0.24 | –
[3], 299.15 K, x1 = 0.9325 | 0.129 | –
[3], 318.15 K, x1 = 0.0458 | 0.0698 | –
[3], 318.15 K, x1 = 0.1 | 0.141 | –
[3], 318.15 K, x1 = 0.1556 | 0.207 | –
[3], 318.15 K, x1 = 0.2136 | 0.274 | –
[3], 318.15 K, x1 = 0.2734 | 0.329 | –
[3], 318.15 K, x1 = 0.3313 | 0.37 | –
[3], 318.15 K, x1 = 0.3854 | 0.401 | –
[3], 318.15 K, x1 = 0.4221 | 0.415 | –
[3], 318.15 K, x1 = 0.4655 | 0.427 | –
[3], 318.15 K, x1 = 0.5127 | 0.431 | –
[3], 318.15 K, x1 = 0.5632 | 0.429 | –
[3], 318.15 K, x1 = 0.6217 | 0.416 | –
[3], 318.15 K, x1 = 0.6845 | 0.388 | –
[3], 318.15 K, x1 = 0.7505 | 0.344 | –
[3], 318.15 K, x1 = 0.8187 | 0.28 | –
[3], 318.15 K, x1 = 0.884 | 0.195 | –
[3], 318.15 K, x1 = 0.9472 | 0.102 | –
[4], 303.15 K, x1 = 0.0628 | – | 1.6e-07
[4], 303.15 K, x1 = 0.0928 | – | 2.36e-07
[4], 303.15 K, x1 = 0.1566 | – | 3.68e-07
[4], 303.15 K, x1 = 0.194 | – | 4.3e-07
[4], 303.15 K, x1 = 0.2507 | – | 5.07e-07
[4], 303.15 K, x1 = 0.3088 | – | 5.69e-07
[4], 303.15 K, x1 = 0.3502 | – | 6.04e-07
[4], 303.15 K, x1 = 0.3916 | – | 6.3e-07
[4], 303.15 K, x1 = 0.453 | – | 6.49e-07
[4], 303.15 K, x1 = 0.5059 | – | 6.51e-07
[4], 303.15 K, x1 = 0.5463 | – | 6.4e-07
[4], 303.15 K, x1 = 0.6022 | – | 6.17e-07
[4], 303.15 K, x1 = 0.6588 | – | 5.71e-07
[4], 303.15 K, x1 = 0.698 | – | 5.37e-07
[4], 303.15 K, x1 = 0.7527 | – | 4.73e-07
[4], 303.15 K, x1 = 0.7928 | – | 4.2e-07
[4], 303.15 K, x1 = 0.851 | – | 3.21e-07
[4], 303.15 K, x1 = 0.9115 | – | 2.06e-07
[4], 303.15 K, x1 = 0.942 | – | 1.4e-07
[4], 318.15 K, x1 = 0.1079 | – | 2.35e-07
[4], 318.15 K, x1 = 0.1326 | – | 2.91e-07
[4], 318.15 K, x1 = 0.1749 | – | 3.68e-07
[4], 318.15 K, x1 = 0.2201 | – | 4.34e-07
[4], 318.15 K, x1 = 0.2751 | – | 5.03e-07
[4], 318.15 K, x1 = 0.3257 | – | 5.54e-07
[4], 318.15 K, x1 = 0.3949 | – | 6.05e-07
[4], 318.15 K, x1 = 0.4521 | – | 6.3e-07
[4], 318.15 K, x1 = 0.4783 | – | 6.36e-07
[4], 318.15 K, x1 = 0.55 | – | 6.31e-07
[4], 318.15 K, x1 = 0.5996 | – | 6.16e-07
[4], 318.15 K, x1 = 0.6675 | – | 5.74e-07
[4], 318.15 K, x1 = 0.7318 | – | 5.24e-07
[4], 318.15 K, x1 = 0.8163 | – | 4.04e-07
[4], 318.15 K, x1 = 0.8728 | – | 3.17e-07

Source: the NIST ThermoML archive (doi:10.1021/je034290l)
